Measured values: patent US20100197745A1, “GAMMA-GLUTAMYL TRANSPEPTIDASE INHIBITORS AND METHODS OF USE” (priority 2008, published 2010)
“Also recorded” adds a separate entry of the source. Read-outs that look alike come from different tables or passages of the source. Residues, ends and D or L forms follow the SMILES beside them.

Legend:
[1] = system: metastatic melanoma to the liver; conditions: acivicin used to deplete tumor GSH in combination with aggressive therapy (ref. 4); cited from earlier work
786-O cells = experiment: Cytotoxicity assay (MTT, 72 hr) in dividing 786-O cells; format: cell-based
Description: 786-O (ATCC CRL-1932), a human renal cell adenocarcinoma line, was plated in DMEM supplemented with 5% FBS and penicillin/streptomycin (50 U/mL, 50 ug/mL) at 10^3 cells per well in 96-well plates. The next day the medium was changed to fresh DMEM containing FBS, antibiotics and the test compound. Equivalent concentrations of DMSO were added to control wells. Cell viability was determined by the MTT assay 72 hr after the addition of the test compound (20).
A two-tailed t-test was used to detect significant differences between OU749 inhibition of human GGT and inhibition of GGT from other species.

human kidney GGT = target: T1, human kidney GGT (Homo sapiens, UniProt P19440); experiment: Glutathione degradation by human kidney GGT; format: biochemical
T1 construct: GGT was isolated from human kidney; tissue National Disease Research Interchange, Philadelphia, PA; host or cells: human kidney, Triton X-100 extract of microsomes
Description: (§1) An incubation mixture contained 1 mM glutathione, 40 mM glycyl-glycine, and inhibitor in the GGT assay buffer. Reactions were initiated with the addition of 1.9 mU of GGT and incubated at 37° C. The final volume of the reaction was 100 μL. Aliquots of the reaction mixture were removed at the specified time points, immediately acidified with an equal volume of cold 4.31% 5-sulfosalicylic acid, and maintained at 4° C. until glutathione concentration was determined by the method of Tietze (21).

[2] = target: T2, GGT in 786-O and HK-2 cells (Homo sapiens, UniProt P19440); experiment: Inhibition of cell-surface GGT in human kidney cell lines; format: cell-based; conditions: 786-O and HK-2 (FIG. 5B)
T2 construct: GGT is expressed on the cell surface; CRL-2190 (HK-2); host or cells: 786-O human renal adenocarcinoma cells; HK-2 human proximal tubule cells
Description: (§2) An assay method was developed to screen for inhibitors of GGT. The assays were conducted in 96-well plates. The final volume in each well was 100 μL. The assay buffer contained: 100 mM Na2HPO4 pH 7.4, with 3.2 mM KCI, 1.8 mM KH2PO4, and 27.5 mM NaCl. Each reaction contained 1 mM L-glutamic acid γ-4-nitroanilide HCI (GpNA) and 40 mM glycyl-glycine (Gly-Gly)(19). GGT is expressed on the cell surface and the assay was initiated by addition of 10^4 786-O cells (ATCC CRL-1932, a GGT-positive human renal cell adenocarcinoma line).
(§3) LLC-PKI (ATCC CRL 1392), a pig kidney cell line, NRK-52E (ATCC CRL-1571), a normal rat kidney cell line, LLC-MK2 (ATCC CCL-7), a normal kidney monkey cell line, and 786-O cells were grown in complete Dulbecco's Modified Eagle's Medium (DMEM) supplemented with 5% FBS (Hyclone, Logan, Utah), and penicillin/streptomycin (50 U/mL, 50 μg/mL) (Invitrogen, Carlsbad, Calif.). NIH/3T3 cells transfected with cDNA encoding human GGT were described previously and were grown in DMEM/F12 containing 200 μg/mL of G418 (6). HK-2 (ATCC CRL-2190), a human cell line derived from immortalized normal proximal tubule cells, were grown in keratinocyte serum-free media (K-SFM) from ATCC (Manassas, Va.). The cells were trypsinized off the plates and suspended in PBS for the GGT assay.

GGT in LLC-MK2 cells = experiment: Inhibition of cell-surface GGT in monkey kidney cell line; format: cell-based; conditions: LLC-MK2 (FIG. 5B)
Description: as §2, §3

[3] = target: T3, GGT isolated from human kidney (Homo sapiens, UniProt P19440); experiment: GGT transpeptidation kinetic assay (GpNA / glycyl-glycine) with GGT isolated from human kidney; format: biochemical; conditions: for Michaelis constant of the substrate (Kglygly, KGpNA): human kidney GGT
T3 construct: GGT was isolated from human kidney; tissue National Disease Research Interchange, Philadelphia, PA; host or cells: human kidney, Triton X-100 extract of microsomes
Description: as §2
(§4) GGT was isolated from human kidney (National Disease Research Interchange, Philadelphia, PA), male Sprague-Dawley rat kidney and female Balb/c mouse kidney. Tissue was homogenized in 4 volumes of 25 mM Tris pH 7.5, containing 0.33 M sucrose, 0.2 mM EDTA, 1 μM leupeptin and 1.4 μg/ml aprotinin. A 9000 g supernatant was spun at 100,000 g for 1 h. The microsomal pellet was homogenized in 25 mM Tris pH 7.35, 0.5% Triton X-100, 1 μM leupeptin, 1.4 μg/ml aprotinin then centrifuged again at 100,000 g for 1 h. The supernatant was assayed for GGT activity, aliquoted, and stored at −80° C. until further use. All solutions were maintained at 4° C. throughout the isolation. The specific activities of GGT were 3.4, 7.4, and 1.5 units/mg protein for human, rat, and mouse preparations, respectively. Prior to use in the GGT assay, the enzyme was diluted in phosphate-buffered saline (PBS) containing 0.025% Triton X-100 and 0.19 m Units of enzyme were used per assay unless otherwise indicated.
(§5) The concentrations of the substrate GpNA and the acceptor Gly-Gly were varied as indicated. Purified GGT was added to initiate the assay. The reaction was monitored as described for the high throughput screening.
Initial velocity data were first analyzed graphically using double-reciprocal plots of initial velocities versus substrate concentration and suitable secondary plots.
Data for competitive and uncompetitive inhibition were fitted using Equations 1 and 2.

[4] = target: T4, human GGT expressed in mouse NIH3T3 fibroblasts (Homo sapiens, UniProt P19440); experiment: Inhibition of human GGT expressed in mouse NIH3T3 fibroblasts; format: cell-based; conditions: NIH3T3 transfected with human GGT cDNA (FIG. 5B)
T4 construct: expressed in transfected cells; host or cells: NIH/3T3 mouse fibroblasts, G418-selected
Description: as §2, §3

[5] = target: T5, human GGT expressed in Pichia pastoris (Homo sapiens, UniProt P19440); experiment: GGT kinetic assay with purified human GGT expressed in Pichia pastoris; format: biochemical
T5 construct: The soluble domain of human GGT (amino acids 28-569) was amplified by PCR; His6 (TEV protease-cleavable) (N, cleaved yes); made in house; host or cells: Pichia pastoris strain X-33 (pPICZαA, plasmid pMW-102), secreted
From the text: The soluble domain of human GGT (amino acids 28-569) was amplified by PCR. The forward primer introduced a EcoRI restriction site and a TEV protease-cleavable N-terminal His6 tag, while the reverse primer introduced a NotI restriction site after the stop codon of genomic GGT. The PCR product was digested with EcoRI and Not I and inserted into the corresponding sites of pPICZαA (Invitrogen), generating plasmid pMW-102. This construct was amplified in E. coli DH5α cells. The fidelity of the recombinant ORF was verified by sequencing (Oklahoma Medical Research Foundation's DNA Sequencing Core Facility, Oklahoma City, Okla.). The SacI-linearized plasmid, pMW-102, was purified and transformed into wild-type Pichia pastoris strain X-33, selected and induced as recommended by Invitrogen. Secreted, recombinant, His6-tagged, human GGT was collected from the media with a Ni-NTA column. The hexahistidine tag was cleaved with His6-tagged TEV protease. […]
The concentrations of the substrate GpNA and the acceptor Gly-Gly were varied as indicated. […] The reaction was monitored as described for the high throughput screening.
Initial velocity data were first analyzed graphically using double-reciprocal plots of initial velocities versus substrate concentration and suitable secondary plots. […]

[6] = target: T6, GGT isolated from rat kidney (Rattus norvegicus, UniProt P07314); experiment: Inhibition of GGT isolated from rat kidney; format: biochemical; conditions: rat kidney GGT (FIG. 5A)
T6 construct: male Sprague-Dawley rat kidney; from tissue; host or cells: male Sprague-Dawley rat kidney, Triton X-100 extract of microsomes
Description: as §4, §5

GGT from rat kidney = target: T7, GGT from rat kidney (Rattus norvegicus, UniProt P07314); experiment: Glutathione degradation by rat kidney GGT; format: biochemical; conditions: 1 mM glutathione, 40 mM glycylglycine (FIG. 6B)
T7 construct: male Sprague-Dawley rat kidney; from tissue; host or cells: male Sprague-Dawley rat kidney, Triton X-100 extract of microsomes
Description: as §1

GGT from mouse kidney = target: T8, GGT from mouse kidney (Mus musculus, UniProt Q60928); experiment: Inhibition of GGT isolated from mouse kidney; format: biochemical; conditions: mouse kidney GGT (FIG. 5A)
T8 construct: female Balb/c mouse kidney; from tissue; host or cells: female Balb/c mouse kidney, Triton X-100 extract of microsomes
Description: as §4, §5

GGT in NRK-52E cells = target: T9, GGT in NRK-52E cells (Rattus norvegicus, UniProt P07314); experiment: Inhibition of cell-surface GGT in rat kidney cell line; format: cell-based; conditions: NRK-52E (FIG. 5B)
T9 construct: NRK-52E (ATCC CRL-1571), a normal rat kidney cell line; host or cells: NRK-52E rat kidney cells
Description: as §2, §3

GGT in LLC-PK1 cells = target: T10, GGT in LLC-PK1 cells (Sus scrofa, UniProt P20735); experiment: Inhibition of cell-surface GGT in pig kidney cell line; format: cell-based; conditions: LLC-PK1 (FIG. 5B)
T10 construct: LLC-PKI (ATCC CRL 1392), a pig kidney cell line; host or cells: LLC-PK1 pig kidney cells
Description: as §2, §3

[7] = appKi obtained by varying GpNA, glygly fixed at 40 mM, uncompetitive, read-out: Inhibition of Transpeptidation (Alpha Ki)

T3 sequence (P19440 1-380 limits assumed): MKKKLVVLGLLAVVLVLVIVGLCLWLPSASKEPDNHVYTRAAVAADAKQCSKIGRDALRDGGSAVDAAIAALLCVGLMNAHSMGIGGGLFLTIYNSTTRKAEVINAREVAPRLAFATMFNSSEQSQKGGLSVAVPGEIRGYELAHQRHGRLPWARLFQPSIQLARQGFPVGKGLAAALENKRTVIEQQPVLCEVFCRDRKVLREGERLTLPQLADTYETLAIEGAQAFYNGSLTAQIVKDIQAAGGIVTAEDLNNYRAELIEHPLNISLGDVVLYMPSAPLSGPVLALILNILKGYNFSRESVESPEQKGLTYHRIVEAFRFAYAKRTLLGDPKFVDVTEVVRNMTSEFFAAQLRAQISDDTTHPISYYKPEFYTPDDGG
T3 sequence (P19440 381-569 limits assumed): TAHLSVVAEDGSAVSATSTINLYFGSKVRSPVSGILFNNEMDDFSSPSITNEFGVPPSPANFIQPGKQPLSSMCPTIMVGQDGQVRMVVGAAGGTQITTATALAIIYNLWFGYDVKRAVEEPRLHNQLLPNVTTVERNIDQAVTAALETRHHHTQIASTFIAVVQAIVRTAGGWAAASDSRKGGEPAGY
T1 sequence (P19440 1-380 limits assumed): as the sequence (P19440 1-380 limits assumed) above
T1 sequence (P19440 381-569 limits assumed): as the sequence (P19440 381-569 limits assumed) above
T7 sequence (P07314 whole entry): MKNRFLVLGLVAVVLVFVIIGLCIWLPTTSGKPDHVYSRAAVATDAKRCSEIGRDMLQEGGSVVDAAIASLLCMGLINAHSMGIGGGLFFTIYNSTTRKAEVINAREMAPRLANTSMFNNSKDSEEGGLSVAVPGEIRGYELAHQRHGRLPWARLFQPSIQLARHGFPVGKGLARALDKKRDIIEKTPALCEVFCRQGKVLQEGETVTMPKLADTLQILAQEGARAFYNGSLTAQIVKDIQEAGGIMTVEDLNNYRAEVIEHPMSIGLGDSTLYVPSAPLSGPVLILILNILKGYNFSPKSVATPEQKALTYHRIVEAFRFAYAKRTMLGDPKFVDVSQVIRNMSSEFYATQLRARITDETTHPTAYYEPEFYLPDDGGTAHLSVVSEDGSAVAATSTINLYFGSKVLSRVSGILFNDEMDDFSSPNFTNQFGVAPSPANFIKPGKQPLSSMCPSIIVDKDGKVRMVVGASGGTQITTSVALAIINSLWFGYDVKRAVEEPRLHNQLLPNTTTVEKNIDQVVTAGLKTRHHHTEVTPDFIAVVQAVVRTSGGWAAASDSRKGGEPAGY
T5 sequence (P19440 28-569): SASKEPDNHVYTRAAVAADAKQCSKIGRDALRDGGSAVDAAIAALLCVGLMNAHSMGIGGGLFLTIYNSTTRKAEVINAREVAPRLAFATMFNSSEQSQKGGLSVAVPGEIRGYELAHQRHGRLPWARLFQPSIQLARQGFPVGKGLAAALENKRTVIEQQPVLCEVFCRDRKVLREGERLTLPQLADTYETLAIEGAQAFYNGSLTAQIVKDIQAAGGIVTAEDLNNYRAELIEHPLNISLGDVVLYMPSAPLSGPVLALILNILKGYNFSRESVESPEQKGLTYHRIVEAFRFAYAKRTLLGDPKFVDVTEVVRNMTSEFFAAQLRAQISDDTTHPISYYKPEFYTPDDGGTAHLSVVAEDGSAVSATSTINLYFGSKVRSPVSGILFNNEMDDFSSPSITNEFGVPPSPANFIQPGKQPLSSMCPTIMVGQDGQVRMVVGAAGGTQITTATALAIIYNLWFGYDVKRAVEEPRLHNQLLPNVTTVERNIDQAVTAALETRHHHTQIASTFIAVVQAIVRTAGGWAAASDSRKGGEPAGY
T4 sequence (P19440 whole entry): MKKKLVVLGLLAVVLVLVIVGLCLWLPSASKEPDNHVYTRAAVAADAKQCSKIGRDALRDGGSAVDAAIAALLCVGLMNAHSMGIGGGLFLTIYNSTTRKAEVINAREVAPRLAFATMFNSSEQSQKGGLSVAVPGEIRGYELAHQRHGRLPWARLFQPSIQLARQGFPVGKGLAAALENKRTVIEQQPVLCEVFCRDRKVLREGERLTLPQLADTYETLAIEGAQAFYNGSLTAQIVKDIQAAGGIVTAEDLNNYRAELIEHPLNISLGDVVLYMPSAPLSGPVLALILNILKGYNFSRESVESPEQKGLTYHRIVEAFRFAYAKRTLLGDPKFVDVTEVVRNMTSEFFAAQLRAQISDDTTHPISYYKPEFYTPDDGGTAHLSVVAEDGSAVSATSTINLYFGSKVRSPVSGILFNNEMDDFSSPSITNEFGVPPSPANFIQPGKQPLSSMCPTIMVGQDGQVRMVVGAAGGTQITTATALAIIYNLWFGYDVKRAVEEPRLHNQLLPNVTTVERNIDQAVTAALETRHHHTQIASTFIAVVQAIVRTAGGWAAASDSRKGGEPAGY
T2 sequence (P19440 whole entry): as above
T6 sequence (P07314 whole entry): as the sequence (P07314 whole entry) above
T9 sequence (P07314 whole entry): as above

N[C@H](C(=O)O)[C@@H]1CC(Cl)=NO1 [Acivicin, acivicin, reference compound]
complete cure of metastatic melanoma to the liver, share of test animals [1]: 90%
LD50 (786-O cells; human, 72 h): 0.81 µM

COc1ccc(Cc2nnc(NS(=O)(=O)c3ccccc3)s2)cc1 [Compound 3, N-[5-(4-methoxybenzyl)-1,3,4-thiadiazol-2-yl]benzenesulfonamide]
inhibition of cleavage of glutathione (human kidney GGT; 1 mM glutathione, 40 mM glycylglycine, 62.5-500 uM compound (FIG. 6A)): inhibited the cleavage of glutathione in a dose-dependent manner; also recorded: inhibited glutathione breakdown by human GGT
inhibition of cleavage of oxidized glutathione (GSSG) (human kidney GGT; human GGT, data not shown): inhibited the cleavage of oxidized glutathione
inhibition of GGT in human kidney cell lines [2]: dose-dependent inhibition
inhibition of GGT in monkey kidney cell line (GGT in LLC-MK2 cells): only weakly inhibited
inhibition of GGT isolated from human kidney ([3]; 0-125 μM, 40 mM glycylglycine (FIG. 3)): inhibited GGT isolated from human kidney in a dose-dependent manner
type of inhibition with respect to GpNA ([3]; GpNA varied, glygly 40 mM): uncompetitive
Ki [3, 7]: 73.8 ± 2.5 µM
Ki ([3]; fit of data of FIGS. 4A-D to the equation for noncompetitive inhibition, read-out: Ki binding to the E form of the enzyme): > 200 µM
type of inhibition with respect to glygly ([3]; glygly varied, GpNA 3 mM): competitive
Ki ([3]; glygly varied, GpNA maintained at 3 mM, read-out: Ki, competitive with respect to glygly (intrinsic value)): 17.6 ± 3.8 µM
weaker binding to the E form ([3]; relative to binding in the presence of the γ-glutamyl moiety): > 10 fold
fold less toxic than acivicin (786-O cells; 786-O cells in log growth): more than 150 fold
toxicity relative to acivicin (786-O cells; 786-O cells in log growth): at least an order of magnitude less toxic than acivicin
fold less toxic than acivicin (786-O cells; 786-O cells in log growth, listed as compound 3): 150 fold
LD50 (786-O cells; dividing 786-O cells, 3 days with test compound, MTT): 128 µM
inhibition of human GGT expressed in mouse cells [4]: inhibited by compound 3 to the same extent as human GGT expressed in other human cells
Ki ([5]; GpNA varied, 40 mM glycylglycine, read-out: appKi obtained varying GpNA): 58.2 ± 1.6 µM
Ki ([5]; glygly varied, 3 mM GpNA, read-out: appKi as a competitive inhibitor of glygly): 25 ± 2 µM
fold less potent than against GGT isolated from human kidney [6]: 7 fold
inhibition of degradation of glutathione (GGT from rat kidney): unable to inhibit; also recorded: did not inhibit
fold less potent than against GGT isolated from human kidney (GGT from mouse kidney): 10 fold
inhibition of GGT in rat kidney cell line (GGT in NRK-52E cells): only weakly inhibited
inhibition of GGT in pig kidney cell line (GGT in LLC-PK1 cells): not inhibited

O=S(=O)(Nc1nnc(Cc2ccccc2)s1)c1ccc(Cl)cc1 [Compound 4]
Ki [3, 7]: 75.9 ± 1.7 µM

COc1ccc(Cc2nnc(NS(=O)(=O)c3ccc([N+](=O)[O-])cc3)s2)cc1 [Compound 7]
Ki [3, 7]: 114 ± 8.4 µM

COc1ccc(S(=O)(=O)Nc2nnc(Cc3ccc(OC)c(OC)c3)s2)cc1 [Compound 9]
Ki [3, 7]: 1110 µM

N[C@@H](CCC(=O)Nc1ccc([N+](=O)[O-])cc1)C(=O)O [GpNA, L-glutamic acid γ-4-nitroanilide HCI, reference compound]
Michaelis constant of the substrate (Kglygly, KGpNA) [3]: 1.07 ± 0.04 mM

NCC(=O)NCC(=O)O [glygly, glycyl-glycine, reference compound] (H-Gly-Gly-OH)
Michaelis constant of the substrate (Kglygly, KGpNA) [3]: 11.4 ± 1.2 mM
